From EP4029501A1, “COMBINATION OF POLYAROMATIC UREA DERIVATIVES AND GLUCOCORTICOID OR HDAC INHIBITOR FOR THE TREATMENT OF DISEASES OR CONDITIONS ASSOCIATED WITH MUSCLE CELLS AND/OR SATELLITE CELLS” (Anagenesis Biotechnologies, priority 2021, dated 2022)

Tests used:
Format in all cases: cell-based, human
[1] = system: muscle progenitors derived from DMD hiPSC; assay: Dose response assay of combination treatments with Givinostat or Prednisolone: total myotube area; conditions: for EC50: Homo sapiens, Myotube, compound alone, DRC 4.5 nM to 10 µM, DMD hMPs (figure 6), read-out: potency (EC50) on myotube surface; for potency: change in words; for improvement of potency: versus alone
Text: (§1) • Figure 1 - the workflow of the myotube assay, aiming at monitoring myogenic activity of compounds and effect on satellite-like cells. • Figure 2 - the myogenic activity of compound (i) in a dose-response assay, as shown by an increase of the total myotube surface/well upon increase of compound concentration. • Figure 3 - the positive effect on satellite-like cells of compound (i) in a dose-response assay, as shown by the increase of Pax7-positive cell percentage upon increase of compound concentration. • Figure 4 - representative images for the dose-response of the total myotube area readout for compound (i), corresponding to Figure 2. • Figure 5 - representative images for the dose-response of the percentage of Pax7-positive cell readout for compound (i), corresponding to Figure 3. • Figure 6 - Dose-response curve on muscle progenitors derived from DMD hiPSC. Treatment of muscle progenitors derived from DMD hiPSC with Prednisolone or Givinostat alone inducing a beneficial effect on α-actinin expression (representative of the myotube surface) and a loss of nearly 50 % of Pax7 positive cells (representative of the population of satellite cells) in a dose-dependent manner. The highest concentration represented is 10 µM. The arrows show the point a 0.3 µM. Efficacy values correspond to the highest score of normalized myotube surface (y-axis). Activity values correspond to the half maximal effective concentration (EC50; x-axis). The curve fits were calculated using a 4-parameter logistic regression model (Graphpad PRISM software). Error bars show standard deviation (SD). The picture on the right panel is representative of the highest myotube surface value of the dose-response curve. • Figures 7-9 - Dose-response curve on muscle progenitors derived from DMD hiPSC. Treatment in a dose-dependent manner of muscle progenitors derived from DMD hiPSC with indicated compound alone or with combination with Prednisolone or Givinostat at 0.3 µM. The combination induced an improvement of myogenic capabilities seen with α-actinin expression (representative of the myotube surface) and harbor no worsening of the Pax7 positive cells (representative of the population of satellite cells) compared to Prednisolone or Givinostat alone. The highest concentration of DRC is 10 µM.
Efficacy values correspond to the highest score of normalized myotube surface (y-axis). Activity values correspond to the half maximal effective concentration (EC50; x-axis). The curve fits were calculated using a 4-parameter logistic regression model (Graphpad PRISM software). Error bars show standard deviation (SD). The picture on the right panel is representative of the highest myotube surface value of the dose-response curve.
(§2) Figure 1 provides an example of a Myotube assay workflow. At day 0, hMP are thawed and 3.1 million cells are plated into a T75-flask coated with hESC-qualified Matrigel™ (Corning) in SkGM proliferating medium (PromoCells), supplemented with 5 µM Y-27632 (Tocris Bioscience). On day 2, SkGM proliferating medium is refreshed. On day 4, hMP are harvested and transferred into a 384-well plate coated with collagen type I at a density of 3500 cells/well in a DMEM-based medium, containing 5% of knockout serum replacement (Gibco), 1% PenStrep (Gibco), 1% MEM NEAA (Gibco) and 0.1 mM 2-mercaptoethanol (Gibco) (hereafter "K5 medium") and 5 µM Y-27632. Compounds to be tested are then added in the medium and incubated for 3 days at 37°C. On day 7, cells are fixed and immunostained. For example, myotubes (alpha-actinin staining) and satellite-like (Pax7 staining) cells can be analyzed for total myotube area per well or Pax7-positive cell quantification.
DMD hMPs were put in the Myotube assay according to the workflow described in example 2.1. […]

Pax7 positive cells = assay: Dose response assay of combination treatments with Givinostat or Prednisolone: percentage of Pax7-positive cells; conditions: for drop of satellite cells content: compound alone at 0.3 µM, DMD hMPs (figure 6); for loss of Pax7 positive cells: dose-dependent, highest concentration 10 µM (Figure 6 legend)
Text: as §1, §2
DMD hMPs were put in the Myotube assay according to the workflow described in example 2.1. In particular, Prednisolone (Sigma) or Givinostat (Exclusive Chemistry) were added in all conditions at a fixed concentration equal to 0.3 µM in combination with compounds az or bw or q tested in DRC at 8 concentrations ranging from 4.5 nM to 10 µM, starting from day 4. Also, as control, DRCs with the same range of concentrations were done with Prednisolone alone, Givinostat (figure 6) alone or compounds az or bw or q alone (figures 7 to 9). […]

[2] = system: muscle progenitors derived from DMD hiPSC; assay: Myotube assay: total myotube area per well (alpha-actinin staining); conditions: Homo sapiens, Myotube, 72 h, DMD or WT cell source not given; for Emax: efficacy, MA = normalized Myotube Area, 3 days incubation; for EC50: myogenic activity, half-maximal generation of myotubes, 10 points dose-response 1.5 nM to 30 µM, 3 days
Procedure, shortened: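 DMD hiPSC-derived muscle progenitors (NCRM-1 background) plated at 3500 cells/well in K5 medium with 5 µM Y-27632, then exposed to compound at 1.5 nM–30 µM for 3 days at 37°C. Cells fixed on day 7, alpha-actinin-immunostained and total myotube area per well quantified; duplicates averaged, EC50 and normalized myotube area derived.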

[3] = DRC 4.5 nM to 10 µM in combination with Givinostat at 0.3 µM
[4] = DRC 4.5 nM to 10 µM in combination with Prednisolone at 0.3 µM
[5] = in combination with Givinostat at 0.3 µM
[6] = in combination with Prednisolone at 0.3 µM

In the case of `CCN(CC)Cc1ccc2cc(COC(=O)Nc3ccc(C(=O)NO)cc3)ccc2c1` [Givinostat, reference compound], the EC50 [1] is reported as at most 170 nM, the “drop of satellite cells content” value (Pax7 positive cells) is reported as “about 50%” and the “loss of Pax7 positive cells” value (Pax7 positive cells; compound alone) is reported as about 50%.

In the case of `C[C@]12C=CC(=O)C=C1CC[C@@H]1[C@@H]2[C@@H](O)C[C@@]2(C)[C@H]1CC[C@]2(O)C(=O)CO` [Prednisolone, reference compound], the EC50 [1] is reported as at most 170 nM, the “drop of satellite cells content” value (Pax7 positive cells) is reported as “about 50%” and the “loss of Pax7 positive cells” value (Pax7 positive cells; compound alone) is reported as about 50%.

With `CSc1cc(Oc2ccnc3[nH]c(=O)cnc23)ccc1NC(=O)Nc1cc(C(C)(C)C)nn1-c1cccc(F)c1` [(bw), 1-(3-(tert-butyl)-1-(3-fluorophenyl)-1H-pyrazol-5-yl)-3-(2-(methylthio)-4-((3-oxo-3,4-dihydropyrido[2,3-b]pyrazin-8-yl)oxy)phenyl)urea] the Emax [2] was at least 75%, the EC50 [2] was under 500 nM and the total myotube surface [1, 3] was “increased the total myotube surface”. For the same compound, the total myotube surface [1, 4] was “increased the total myotube surface”, the potency [1, 5] was “improved” and the potency [1, 6] was “slightly decreased”. The satellite cell pool (Pax7 positive cells; compound alone, DRC 4.5 nM to 10 µM) was “decrease of satellite cell pool which is only seen at high concentration”, the satellite cell population (Pax7 positive cells; [5]) was “the decrease of satellite cell pool which is only seen at high concentration of treatment with compound bw alone is slightly diminished” and the satellite cell population (Pax7 positive cells; [6]) was “the decrease of satellite cell pool which is only seen at high concentration of treatment with compound bw alone is slightly diminished”.

With `Cc1ccc(-n2nc(C(C)(C)C)cc2NC(=O)Nc2ccc(Oc3ccnc4[nH]c(=O)cnc34)cc2C(F)(F)F)cc1` [(az), 1-(3-(tert-butyl)-1-(p-tolyl)-1H-pyrazol-5-yl)-3-(4-((3-oxo-3,4-dihydropyrido[2,3-b]pyrazin-8-yl)oxy)-2-(trifluoromethyl)phenyl)urea] the Emax [2] was at least 75%, the EC50 [2] was 500 to 1000 nM and the total myotube surface [1, 3] was “increased the total myotube surface”. The total myotube surface [1, 4] was “increased the total myotube surface”, the improvement of potency [1, 5] was “two fold” and the improvement of potency [1, 6] was “two fold”. For the same compound, the satellite cell population (Pax7 positive cells; [5]) was “at least maintained” and the “satellite cell population increase” value (Pax7 positive cells; [6]) was 1.5 fold.

With `CC(C)(C)c1cc(NC(=O)Nc2ccc(Oc3ccnc4[nH]c(=O)cnc34)cc2F)sn1` [(q), 1-(3-(tert-butyl)isothiazol-5-yl)-3-(2-fluoro-4-((3-oxo-3,4-dihydropyrido[2,3-b]pyrazin-8-yl)oxy)phenyl)urea] the Emax [2] was 50 to 75%, the EC50 [2] was 1000 to 5000 nM and the total myotube surface [1, 3] was “strongly increased”. For the same compound, the total myotube surface [1, 4] was “strongly increased”, the improvement of potency [1, 5] was 1.4 fold and the improvement of potency [1, 6] was 5 fold. For the same compound, the satellite cell population (Pax7 positive cells; [5]) was “maintenance of the satellite cells in all conditions” and the satellite cell population (Pax7 positive cells; [6]) was “maintenance of the satellite cells in all conditions”.

Compound `CSc1cc(Oc2ccnc3[nH]c(=O)cnc23)ccc1NC(=O)Nc1cc(C(C)(C)C)nn1-c1ccc(C#N)cc1` [(cc), 1-(3-(tert-butyl)-1-(4-cyanophenyl)-1H-pyrazol-5-yl)-3-(2-(methylthio)-4-((3-oxo-3,4-dihydropyrido[2,3-b]pyrazin-8-yl)oxy)phenyl)urea] has an Emax [2] of at least 75% and an EC50 [2] of under 500 nM.

`CC(C)(C)c1cc(NC(=O)Nc2ccc(Oc3ccnc4[nH]c(=O)cnc34)cc2F)n(-c2ncccn2)n1` [(m), 1-(3-(tert-butyl)-1-(pyrimidin-2-yl)-1 H-pyrazol-5-yl)-3-(2-fluoro-4-((3-oxo-3,4-dihydropyrido[2,3-b]pyrazin-8-yl)oxy)phenyl)urea] showed an Emax [2] of 50 to 75% and an EC50 [2] of at least 5000 nM.

In the case of `Cc1cc(Oc2ccnc3[nH]c(=O)cnc23)ccc1NC(=O)Nc1cc(C(C)(C)C)nn1-c1ccccc1` [(al), 1-(3-(tert-butyl)-1-phenyl-1 H-pyrazol-5-yl)-3-(2-methyl-4-((3-oxo-3,4-dihydropyrido[2,3-b]pyrazin-8-yl)oxy)phenyl)urea], the Emax [2] is reported as at least 75% and the EC50 [2] is reported as at least 5000 nM.

Compound `O=C(Nc1ccc(Oc2ccnc3[nH]c(=O)cnc23)cc1F)Nc1c(-c2ccccc2)nn2c1CCC2` [(y), 1-(2-fluoro-4-((3-oxo-3,4-dihydropyrido[2,3-b]pyrazin-8-yl)oxy)phenyl)-3-(2-phenyl-5,6-dihydro-4H-pyrrolo[1,2-b]pyrazol-3-yl)urea] has an Emax [2] of 25 to 50% and an EC50 [2] of at least 5000 nM.

`CNC(=O)c1cncc(Oc2ccc(NC(=O)Nc3cc(C(C)(C)C)nn3-c3ccccc3)c(SC)c2)c1` [(ai), 5-(4-(3-(3-(tert-butyl)-1-phenyl-1H-pyrazol-5-yl)ureido)-3-(methylthio)phenoxy)-N-methylnicotinamide] was tested, and the EC50 [2] was 500 to 1000 nM.

In the case of `CSc1cc(Oc2ccnc(NS(C)(=O)=O)c2)ccc1NC(=O)Nc1cc(C(C)(C)C)no1` [(dl), N-(4-(4-(3-(3-(tert-butyl)isoxazol-5-yl)ureido)-3-(methylthio)phenoxy)pyridin-2-yl)methanesulfonamide], the Emax [2] is reported as at least 75% and the EC50 [2] is reported as 1000 to 5000 nM.
